Laboratory results taken from ChEMBL document CHEMBL4145608, “Dehydrodiconiferyl Alcohol Inhibits Osteoclast Differentiation and Ovariectomy-Induced Bone Loss through Acting as an Estrogen Receptor Agonist” (J Nat Prod, 2018).
pIC50: −log10 of the molar value. The source made the active and inactive calls. The rule behind the calls is not given here.

Legend:
[1] = target: T1, MAP kinase p38 (Mus musculus) (UniProt P47811+O08911+Q9WUI1+Q9Z1B7); assay: Inhibition of p38 MAPK signaling pathway in mouse RAW264.7 cells assessed as reduction in RANKL-induced JNK phosphorylation at 10 to 40 uM after 30 mins by Western blot method; type: cell-based
[2] = target: T1, MAP kinase p38 (Mus musculus); assay: Inhibition of p38 MAPK signaling pathway in mouse RAW264.7 cells assessed as reduction in RANKL-induced ERK phosphorylation at 10 to 40 uM after 30 mins by Western blot method; type: cell-based
[3] = tested on: RAW264.7; assay: Inhibition of RANKL-induced osteoclast differentiation in mouse RAW264.7 cells harboring AMPKalpha1 siRNA assessed as decrease in size of TRAP-positive multinucleated cells after 5 days by microscopy; type: functional, cell-based
[4] = target: T2, Estrogen receptor (Mus musculus) (UniProt P19785); assay: Induction of estrogen receptor-mediated AMPKalpha1 activation in mouse RAW264.7 cells at 20 uM in presence of CAMKKbeta inhibitor STO609; type: cell-based
T2 sequence (whole entry): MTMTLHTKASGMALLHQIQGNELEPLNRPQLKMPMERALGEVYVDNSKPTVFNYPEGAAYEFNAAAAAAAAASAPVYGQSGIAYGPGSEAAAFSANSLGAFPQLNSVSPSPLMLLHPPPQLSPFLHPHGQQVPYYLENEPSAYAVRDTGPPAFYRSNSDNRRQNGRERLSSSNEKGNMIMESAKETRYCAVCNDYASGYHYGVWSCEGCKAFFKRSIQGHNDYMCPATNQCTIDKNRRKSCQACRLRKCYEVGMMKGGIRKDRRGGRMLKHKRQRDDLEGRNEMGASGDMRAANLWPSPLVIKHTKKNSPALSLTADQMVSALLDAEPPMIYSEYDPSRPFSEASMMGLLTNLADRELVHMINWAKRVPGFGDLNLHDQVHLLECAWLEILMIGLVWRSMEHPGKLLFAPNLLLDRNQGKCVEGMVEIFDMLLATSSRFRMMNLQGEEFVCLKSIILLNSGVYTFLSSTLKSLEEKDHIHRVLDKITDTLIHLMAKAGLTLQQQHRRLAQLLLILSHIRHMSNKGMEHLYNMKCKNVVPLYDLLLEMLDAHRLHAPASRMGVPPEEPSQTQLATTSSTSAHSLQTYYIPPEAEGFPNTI

[5] = tested on: RAW264.7; assay: Inhibition of RANKL-induced osteoclast differentiation in mouse RAW264.7 cells assessed as decrease in number of TRAP-positive multinucleated cells at 20 uM after 5 days in presence of ERbeta antagonist PHTPP by microscopy; type: functional, cell-based
[6] = target: T3, Estrogen receptor (Homo sapiens, UniProt P03372); assay: Inhibition of fluoromone binding to recombinant human full length untagged ERalpha expressed in insect cells after 2 hrs by fluorescence polarization assay
T3 sequence (P03372 whole entry): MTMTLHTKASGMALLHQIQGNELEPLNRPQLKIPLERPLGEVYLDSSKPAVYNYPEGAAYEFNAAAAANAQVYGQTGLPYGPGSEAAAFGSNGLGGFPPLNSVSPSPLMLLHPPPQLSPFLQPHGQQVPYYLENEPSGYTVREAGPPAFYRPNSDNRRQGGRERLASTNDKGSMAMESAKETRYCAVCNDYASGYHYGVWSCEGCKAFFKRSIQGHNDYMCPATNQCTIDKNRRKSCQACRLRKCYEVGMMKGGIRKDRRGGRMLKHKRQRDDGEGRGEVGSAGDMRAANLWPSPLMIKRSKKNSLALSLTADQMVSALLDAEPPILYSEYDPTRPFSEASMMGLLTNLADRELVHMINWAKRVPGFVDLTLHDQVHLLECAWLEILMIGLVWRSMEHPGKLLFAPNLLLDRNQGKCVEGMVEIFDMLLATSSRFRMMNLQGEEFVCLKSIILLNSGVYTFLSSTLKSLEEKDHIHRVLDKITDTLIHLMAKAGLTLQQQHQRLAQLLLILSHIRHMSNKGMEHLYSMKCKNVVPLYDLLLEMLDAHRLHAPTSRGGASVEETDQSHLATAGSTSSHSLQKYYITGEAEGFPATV

[7] = target: Estrogen receptor beta (Homo sapiens, UniProt Q92731); assay: Inhibition of fluoromone binding to recombinant human full length untagged ERbeta expressed in insect cells after 2 hrs by fluorescence polarization assay
Estrogen receptor beta, sequence (Q92731 whole entry): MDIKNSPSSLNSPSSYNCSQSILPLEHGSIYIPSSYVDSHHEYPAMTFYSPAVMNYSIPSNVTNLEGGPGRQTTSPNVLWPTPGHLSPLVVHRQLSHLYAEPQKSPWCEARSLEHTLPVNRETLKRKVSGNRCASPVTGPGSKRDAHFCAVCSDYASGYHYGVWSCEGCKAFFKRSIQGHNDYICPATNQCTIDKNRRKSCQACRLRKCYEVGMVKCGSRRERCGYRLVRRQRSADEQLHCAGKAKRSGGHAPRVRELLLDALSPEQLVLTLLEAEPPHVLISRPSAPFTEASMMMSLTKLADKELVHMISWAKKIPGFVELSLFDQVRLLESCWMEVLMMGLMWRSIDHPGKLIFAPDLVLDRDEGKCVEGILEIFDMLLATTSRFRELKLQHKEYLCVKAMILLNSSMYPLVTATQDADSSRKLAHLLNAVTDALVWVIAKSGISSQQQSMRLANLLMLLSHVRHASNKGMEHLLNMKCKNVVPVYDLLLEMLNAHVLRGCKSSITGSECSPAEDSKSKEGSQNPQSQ

[8] = tested on: Mus musculus; assay: Anti-osteoporotic activity in Balb/c mouse assessed as inhibition of OVX-mediated decrease in trabecular number in femur at 25 to 100 mg/kg, ip administered for 4 weeks daily by microcomputed tomography; type: functional, organism-based
[9] = tested on: Mus musculus; assay: Anti-osteoporotic activity in Balb/c mouse assessed as decrease in OVX-induced trabecular spacing in femur at 25 to 100 mg/kg, ip administered for 4 weeks daily by microcomputed tomography; type: functional, organism-based
[10] = tested on: Mus musculus; assay: Anti-osteoporotic activity in Balb/c mouse assessed as decrease in OVX-induced trabecular pattern factor in femur at 25 to 100 mg/kg, ip administered for 4 weeks daily by microcomputed tomography; type: functional, organism-based

inhibition [1]: inactive | inhibition [2]: inactive | Activity [4]: Active | pIC50 [6]: 7.21 | pIC50 [7]: 6.54
Compound: COc1cc(C2Oc3c(OC)cc(/C=C/CO)cc3C2CO)ccc1O (stereo not given)
inhibition [3]: inactive | inhibition [5]: Active | inhibition [8]: Active | Activity [9]: Active | Activity [10]: Active
